According to US20050054726A1, “Vaccine” (priority 2001, published 2005):

What was measured:
IL-4 producing cells = assay: ELISPOT of IL-4 (Th2) producing CD4+ T cells from lymph nodes; assay type: in vivo, mice; details: combination of 1400W with pVAC1.OVA vs pVAC1.OVA + vehicle; FIG. 2
Description: (§1) Twenty four hours later, minipumps containing 1400W (delivering 10 mg/kg per hour), or sterile water (controls), were implanted subcutaneously into mice under anaesthesia. Mice were then immediately immunised by PMID with two cartridges of either pVAC1.0VA or empty vector (1 μg plasmid DNA/mouse).
(§2) Five days later, mice were killed by cervical dislocation and inguinal and periaortic lymph nodes were collected and prepared as for splenocytes (described above), except that the red blood cell lysis step was omitted. To measure the in vivo clonal expansion of CD4+ T cells induced by immunisation, the proportion of ovalbumin-specific T cells was assessed ex vivo in the lymph node cell preparations. Briefly, an aliquot of lymph node cells from each individual mouse was processed for flow cytometry analysis (Coulter XL) using KJ1.26 (0.2 μg, Caltag) and anti-CD4 (0.5 μg, Sigma).
(§3) Th CD4+ subsets were assessed by ELISPOT analyses of CD4+ T cells producing IFN-γ (Th1) and IL-4 (Th2). Briefly, lymph node cell suspension was aliquoted into ELISPOT plates previously coated with capture IFN-γ or IL-4 antibody and stimulated with ovalbumin cognate peptide.

[1] = test system: ovalbumin-specific CD4+ T cells; assay: In vivo clonal expansion of ovalbumin-specific CD4+ T cells after PMID immunisation (adoptive transfer model, flow cytometry KJ1+ CD4+); design: species or system mice
Description: as §1, §2

CD8+ T cells = assay: CD8+ T cell-restricted IFN-γ / IL-2 ELISPOT assay of splenocytes after prime-boost PMID; assay type: in vivo, C57B1/6 mice
Description: Controls contained pVAC1 (0.5 μg plasmid DNA/cartridge) only.
Spleens were collected 12 days later for T cell assays.
The cytotoxic T cell response was assessed by CD8+ T cell-restricted IFN-γ ELISPOT assay of splenocytes. Mice were killed by cervical dislocation and spleens were collected into ice-cold PBS. […] After two washes in PBS to remove particulate matter the single cell suspension was aliquoted into ELISPOT plates previously coated with capture IFN-γ or IL-2 antibody and stimulated with CD8-restricted cognate peptide. After overnight culture, IFN-γ producing cells were visualised by application of anti-murine IFN-γ-biotin labelled antibody (Pharmingen) followed by streptavidin-conjugated alkaline phosphatase and quantitated using image analysis.

IFN-γ producing cells = assay: ELISPOT of IFN-γ (Th1) producing CD4+ T cells from lymph nodes; assay type: in vivo, mice; details: combination pVAC1.OVA + 1400W; FIG. 3
Description: as §1, §2, §3

iNOS = iNOS (Homo sapiens, UniProt P35228); details: category per Alderton et al., Biochem J. (2001) 357, 593-615; cited from earlier work

SMILES	number of IL-4 producing cells (IL-4 producing cells)	clonal expansion of CD4+ T cells ([1]; empty vector + 1400W vs empty vector + vehicle)	clonal expansion of CD4+ T cells ([1]; pVAC1.OVA + 1400W (minipump, 10 mg/kg per hour) vs pVAC1.OVA + vehicle, lymph nodes, five days after PMID, Figure one)	number of IFN-γ- or IL-2-producing CD8+ T cells in the spleens (CD8+ T cells; control plasmid (pVAC1) + 1400W vs vehicle)	number of IFN-γ- or IL-2-producing CD8+ T cells in the spleens (CD8+ T cells; pVAC1.OVAcyt + 1400W relative to pVAC1.OVAcyt + vehicle, 12 days after boost, FIG. 4)	increase in number of IFN-γ producing cells (IFN-γ producing cells)	selectivity category of iNOS inhibitor (iNOS)
CC(=N)NCc1cccc(CN)c1 [1400W, N-[3-(aminomethyl)benzyl] acetamidine]	no effect to a modest almost 2 fold increase	No difference	substantial increase	No differences	twice	2-4 times	–
CC(=N)NCCCC[C@H](N)C(=O)O [L-NIL, reference compound]	–	–	–	–	–	–	partially selective (Inhibitors which have a 10-50-fold selectivity are regarded as partially selective inhibitors)
CC(=N)NCCSCC[C@H](N)C(=O)O [GW274150, S-[2-(1-iminoethylamino)ethyl]-L-homocysteine]	–	–	–	–	–	–	highly selective (compounds of over 50-fold selectivity are regarded as highly selective)
